# Results: US20260199350A1, “FLAVONES, QUINOLINONES, QUINAZOLINONES, AND AURONES, AND USES IN CK2-MEDIATED DISEASES” (Salk Institute for Biological Studies, priority 2022, published 2026)
# Read-outs that look alike come from different tables or passages of the source.
# Assays:
# CK2A1 = biological target: T1, CK2A1 (Homo sapiens, UniProt P68400); test: Radiometric kinase assay (Eurofins), CK2A1; assay type: biochemical; details: read-out: CK2A1 RAD IC50
# T1 construct: purchased Eurofins
# Text: FIGS. 4A-4F characterize flavones for in vitro and in-cell CK2 inhibition. […] Representative of two independent experiments. […] Nonlinear fit was used to calculate IC50. […] Nonlinear fit was used to calculate IC50. […] Nonlinear fit was used to calculate IC50. […] Normalized to DMSO, data are representative of three independent experiments.
# (§1) • ^1Radiometric kinase assay from Eurofins. Performed in astrocytes with a Promega Lumit IL-6 kit.
# CK2A2 = biological target: T2, CK2A2 (Homo sapiens, UniProt P19784); test: Radiometric kinase assay (Eurofins), CK2A2; assay type: biochemical; details: read-out: CK2A2 RAD IC50
# T2 construct: purchased Eurofins
# Text: as §1
# IL-6 secretion = IL-6 secretion assay in astrocytes (Promega Lumit IL-6 kit); assay type: cell-based, human; details: Homo sapiens, Astrocyte, read-out: IL6-Inhib.
# Protocol: IL-6 secretion assay. HCAs were plated at 20,000 cells per well in white clear bottom 96-well plates. Two to three days later, media was removed and replaced with media containing 10 ng/mL IL1B and compound dilution series. Five hours later, plates were processed using the Lumit IL-6 Assay Kit (Promega W6030) according to the manufacturer's instructions.
# • ^1Radiometric kinase assay from Eurofins. Performed in astrocytes with a Promega Lumit IL-6 kit. A series of halogenated flavones was generated and assayed (Table 3).
# Aqueous solubility = assay type: physicochemical; details: read-out: Aqueous Solubility
# NF-κB = test: NF-κB-Luciferase reporter assay in THP-1 NF-κB-Lucia cells; assay type: cell-based, human; details: FIG. 4D
# Protocol: NF-κB-Luciferase reporter assay. THP-1 NF-κB-Lucia cells were plated at 10,000 cells per well with 10 ng/mL PMA. Three days later, media was removed and replaced with media containing LPS (1 μg/mL) and dilution series of compounds in flat bottom clear 96-well plates for 24 hours. A day later, 20 μL of media was transferred to a 96-well white plate and 50 μL of QuantiLuc Gold reagent (InvivoGen rep-qlcg5) was added per well; plate was mixed in the plate reader and luminescence was read using a Promega GloMax Reader.
# [1] = aqueous medium (not further specified), Table 8
# [2] = aqueous (not further specified), Table 3
# T2 sequence (P19784 whole entry): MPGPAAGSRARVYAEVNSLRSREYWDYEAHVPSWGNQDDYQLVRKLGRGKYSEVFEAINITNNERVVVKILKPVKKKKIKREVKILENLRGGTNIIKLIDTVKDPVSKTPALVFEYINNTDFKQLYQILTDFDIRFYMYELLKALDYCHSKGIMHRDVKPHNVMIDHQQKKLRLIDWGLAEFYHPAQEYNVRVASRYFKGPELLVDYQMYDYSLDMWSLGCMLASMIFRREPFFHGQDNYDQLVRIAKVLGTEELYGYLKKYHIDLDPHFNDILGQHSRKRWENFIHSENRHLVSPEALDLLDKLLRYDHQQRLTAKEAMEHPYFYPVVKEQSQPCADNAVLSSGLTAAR
# T1 sequence (P68400 whole entry): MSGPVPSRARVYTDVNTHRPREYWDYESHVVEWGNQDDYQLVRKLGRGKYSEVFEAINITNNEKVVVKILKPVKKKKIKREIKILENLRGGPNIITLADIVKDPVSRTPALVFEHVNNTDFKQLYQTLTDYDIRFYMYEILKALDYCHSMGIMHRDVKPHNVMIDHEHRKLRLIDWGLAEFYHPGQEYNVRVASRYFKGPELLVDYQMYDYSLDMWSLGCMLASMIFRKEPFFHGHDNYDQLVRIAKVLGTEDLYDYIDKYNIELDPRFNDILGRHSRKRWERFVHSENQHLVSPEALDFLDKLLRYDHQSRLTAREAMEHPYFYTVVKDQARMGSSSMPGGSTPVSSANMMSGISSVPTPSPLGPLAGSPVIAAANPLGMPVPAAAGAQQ
Structure (SMILES),"IC50 (CK2A1; Table 8, quinazolinones)","IC50 (CK2A2; Table 8, quinazolinones)",IC50 (IL-6 secretion; Table 8),solubility (Aqueous solubility; [1]),"IC50 (CK2A1; Table 11, aurones)","IC50 (CK2A2; Table 11, aurones)",IC50 (IL-6 secretion; Table 11),solubility (Aqueous solubility; Table 11),also measured
O=c1cc(-c2ccc(O)c(Br)c2)oc2c(Cl)cccc12 [JKT.777A],–,–,–,–,–,–,–,–,"IC50 (CK2A1; Table 3, halogenated flavones): 20 nM; IC50 (CK2A2; Table 3, halogenated flavones): 21 nM; IC50 (IL-6 secretion; Table 3): 10300 nM; solubility (Aqueous solubility; [2]): 14 µM"
O=c1cc(-c2ccc(O)c(Br)c2)oc2ccc(Cl)cc12 [JKT.778A],–,–,–,–,–,–,–,–,"IC50 (CK2A1; Table 3, halogenated flavones): 115 nM; IC50 (CK2A2; Table 3, halogenated flavones): 78 nM; IC50 (IL-6 secretion; Table 3): 7400 nM; solubility (Aqueous solubility; [2]): 15.1 µM"
COc1ccc2c(=O)cc(-c3ccc(O)c(Br)c3)oc2c1Br [JKT.780A],–,–,–,–,–,–,–,–,"IC50 (CK2A1; Table 3, halogenated flavones): 9 nM; IC50 (CK2A2; Table 3, halogenated flavones): 25 nM; IC50 (IL-6 secretion; Table 3): > 10000 nM; solubility (Aqueous solubility; [2]): < 0.01 µM"
COc1ccc2c(=O)cc(-c3ccc(O)c(C(F)(F)F)c3)oc2c1Br [JKT.786A],–,–,–,–,–,–,–,–,"IC50 (CK2A1; Table 3, halogenated flavones): 2480 nM; IC50 (CK2A2; Table 3, halogenated flavones): 1710 nM; IC50 (IL-6 secretion; Table 3): > 10000 nM; solubility (Aqueous solubility; [2]): < 0.01 µM"
COc1ccc2c(=O)cc(-c3ccc(O)c(Cl)c3)oc2c1Br [JKT.787A],–,–,–,–,–,–,–,–,"IC50 (CK2A1; Table 3, halogenated flavones): 24 nM; IC50 (CK2A2; Table 3, halogenated flavones): 16 nM; IC50 (IL-6 secretion; Table 3): 7700 nM; solubility (Aqueous solubility; [2]): < 0.01 µM"
O=c1cc(-c2ccc(O)c(Cl)n2)oc2c(Br)cc(Br)cc12 [JKT.801A],–,–,–,–,–,–,–,–,IC50 (CK2A1; Table 4): 24 nM; IC50 (CK2A2; Table 4): 21 nM; IC50 (IL-6 secretion; Table 4): 4400 nM; solubility (Aqueous solubility; Table 4): 155 µM
O=c1[nH]c(-c2cc(Cl)c(O)c(Cl)c2)nc2c(Cl)cc(Cl)cc12 [JKT.807A],910 nM,> 5000 nM,> 10000 nM,126 µM,–,–,–,–,–
O=c1[nH]c(-c2cc(F)c(O)c(F)c2)nc2c(Cl)cc(Cl)cc12 [JKT.808A],2980 nM,1620 nM,> 10000 nM,189 µM,–,–,–,–,–
O=c1[nH]c(-c2ccc(O)c(C(F)(F)F)c2)nc2c(Cl)cc(Cl)cc12 [JKT.809A],82 nM,> 5000 nM,> 10000 nM,< 0.01 µM,–,–,–,–,–
COc1cc(-c2nc3c(Cl)cc(Cl)cc3c(=O)[nH]2)ccc1O [JKT.810A],> 5000 nM,> 5000 nM,> 10000 nM,< 0.01 µM,–,–,–,–,–
COc1ccc2c(c1Br)O/C(=C\c1ccc(O)c(I)c1)C2=O [JKT.814A],–,–,–,–,131 nM,123 nM,4300 nM,< 0.01 µM,–
COc1ccc2c(c1Br)O/C(=C\c1ccc(O)cc1Br)C2=O [JKT.816A],–,–,–,–,119 nM,1520 nM,> 10000 nM,< 0.01 µM,–
COc1ccc2c(c1Br)O/C(=C\c1ccc(O)c(Cl)c1)C2=O [JKT.817A],–,–,–,–,59 nM,53 nM,6500 nM,< 0.01 µM,–
COc1ccc2c(c1Br)O/C(=C\c1ccc(O)cc1Cl)C2=O [JKT.818A],–,–,–,–,> 5000 nM,> 5000 nM,> 10000 nM,< 0.01 µM,–
COc1ccc2c(c1Br)O/C(=C\c1ccc(O)c(C(F)(F)F)c1)C2=O [JKT.819A],–,–,–,–,540 nM,660 nM,5900 nM,17 µM,–
COc1cc(/C=C2\Oc3c(ccc(OC)c3Br)C2=O)ccc1O [JKT.820A],–,–,–,–,7 nM,6 nM,> 10000 nM,< 0.01 µM,–
COc1ccc2c(c1Br)O/C(=C\c1ccc(C(=O)O)cc1)C2=O [JKT.821A],–,–,–,–,1540 nM,206 nM,> 10000 nM,196 µM,–
COc1c(Br)cc2c(c1Br)O/C(=C\c1cc(Cl)c(O)c(Cl)c1)C2=O [JKT.823A],–,–,–,–,> 5000 nM,1220 nM,5500 nM,167 µM,–
COc1ccc2c(c1Br)O/C(=C\c1cc(Cl)c(O)c(Cl)c1)C2=O [JKT.824A],–,–,–,–,447 nM,140 nM,10100 nM,> 200 µM,–
O=c1[nH]c(-c2ccc(O)c(C(F)(F)F)c2)nc2c(Br)cccc12 [JKT.831A],> 5000 nM,> 5000 nM,> 10000 nM,139 µM,–,–,–,–,–
O=c1cc(-c2ccc(O)c(Br)n2)oc2c(Br)cc(Br)cc12 [JKT.844A],–,–,–,–,–,–,–,–,IC50 (CK2A1; Table 4): 265 nM; IC50 (CK2A2; Table 4): 201 nM; IC50 (IL-6 secretion; Table 4): 8000 nM; solubility (Aqueous solubility; Table 4): 148 µM
O=c1cc(-c2ccccc2)oc2cc(O)cc(O)c12 [chrysin],–,–,–,–,–,–,–,–,Activity in THP-1-NF-κB-Lucia monocytes (NF-κB): No activity

# The next lines start with results.
"IC50 (CK2A1; Table 8, quinazolinones)","IC50 (CK2A2; Table 8, quinazolinones)",IC50 (IL-6 secretion; Table 8),solubility (Aqueous solubility; [1]),"IC50 (CK2A1; Table 11, aurones)","IC50 (CK2A2; Table 11, aurones)",IC50 (IL-6 secretion; Table 11),solubility (Aqueous solubility; Table 11),Structure (SMILES),also measured
243 nM,276 nM,> 10000 nM,24.1 µM,–,–,–,–,O=c1[nH]c(-c2cc(Cl)c(O)c(Cl)c2)nc2c(Br)cc(Br)cc12 [JKT.773B],–
818 nM,1040 nM,> 10000 nM,152 µM,–,–,–,–,O=c1[nH]c(-c2cc(F)c(O)c(F)c2)nc2c(Br)cc(Br)cc12 [JKT.774A],–
370 nM,2480 nM,> 10000 nM,17.9 µM,–,–,–,–,O=c1[nH]c(-c2ccc(O)c(C(F)(F)F)c2)nc2c(Br)cc(Br)cc12 [JKT.775A],–
2890 nM,2830 nM,> 10000 nM,4.2 µM,–,–,–,–,O=c1[nH]c(-c2ccc(O)c(Br)c2)nc2c(Cl)cc(Cl)cc12 [JKT.805A],–
> 5000 nM,> 5000 nM,> 10000 nM,17 µM,–,–,–,–,O=c1[nH]c(-c2ccc(O)c(Cl)c2)nc2c(Cl)cc(Cl)cc12 [JKT.806A],–
–,–,–,–,135 nM,193 nM,1100 nM,< 0.01 µM,COc1c(Br)cc2c(c1Br)O/C(=C\c1ccc(O)c(I)c1)C2=O [JKT.813A],–
–,–,–,–,47 nM,26 nM,4600 nM,< 0.01 µM,COc1ccc2c(c1Br)O/C(=C\c1ccc(O)c(Br)c1)C2=O [JKT.815A],–
–,–,–,–,2010 nM,804 nM,2000 nM,< 0.01 µM,O=C1/C(=C/c2cc(Cl)c(O)c(Cl)c2)Oc2c(Br)cc(Br)cc21 [JKT.822A],–
281 nM,860 nM,> 10000 nM,22.4 µM,–,–,–,–,O=c1[nH]c(-c2ccc(O)c(Br)c2)nc2c(Br)cccc12 [JKT.827A],–
652 nM,1410 nM,> 10000 nM,58.9 µM,–,–,–,–,O=c1[nH]c(-c2ccc(O)c(Cl)c2)nc2c(Br)cccc12 [JKT.828A],–
736 nM,659 nM,> 10000 nM,193 µM,–,–,–,–,O=c1[nH]c(-c2cc(Cl)c(O)c(Cl)c2)nc2c(Br)cccc12 [JKT.829A],–
866 nM,1210 nM,> 10000 nM,171 µM,–,–,–,–,O=c1[nH]c(-c2cc(F)c(O)c(F)c2)nc2c(Br)cccc12 [JKT.830A],–
3940 nM,> 5000 nM,10500 nM,61 µM,–,–,–,–,COc1cc(-c2nc3c(Br)cccc3c(=O)[nH]2)ccc1O [JKT.832A],–
1010 nM,1130 nM,> 10000 nM,< 0.01 µM,–,–,–,–,COc1nc(-c2ccc(O)c(Br)c2)nc2c(Br)cc(Br)cc12 [JKT.842A],–
